Source: US10077243B2, “Compounds for treating disorders mediated by metabotropic glutamate receptor 5, and methods of use thereof” (Sunovion Pharmaceuticals Inc., priority 2009, dated 2018)

Molecular target: T1, human mGluR5 (Homo sapiens, UniProt P41594)
T1 construct: expressed in transfected cells; host or cells: HEK293 cells stably expressing rat GLAST (EAAT1), stably transfected with pcDNAzeo3.1 carrying synthetic human mGluR5 DNA; zeocin-selected single clones
Experiment: In vitro cell-based FLIPR calcium assay for positive modulation of the activation of mGluR5 by glutamate (PAM EC50)
Conditions: HEK293/GLAST cells expressing recombinant human mGluR5; FLIPR calcium signal; glutamate added at its EC20; read-out: mGluR5 PAM EC50
From the text: The DNA sequences encoding the structural regions for rat mGluR5 [Abe T, Sugihara H, Nawa H, Shigemoto R, Mizuno N, Nakanishi S (1992) “Molecular characterization of a novel metabotropic glutamate receptor mGluR5 coupled to inositol phosphate/Ca^2+ signal transduction” Journal of Biological Chemistry vol. 267, no. 19, pp. 13361-8] and human mGluR5 [Daggett L P, Sacaan A I, Akong M, Rao S P, Hess S D, Liaw C, Urrutia A, Jachec C, Ellis S B, Dreessen J, Knöpfel T, Landwehrmeyer G B, Testa C M, Young A B, Varney M, Johnson E C, Veliçelebi (1995) “Molecular and functional characterization of recombinant human metabotropic glutamate receptor subtype 5” Neuropharmacology vol. 34, no. […] 53, no. 3, pp. 355-369] was obtained from Dr. Michael Robinson of the Children's Hospital of Philadelphia under a Material Transfer Agreement. The pcDNAzeo3.1 vector DNA, carrying either rat mGluR5 or human mGluR5, was used to transfect a sample of the HEK293/GLAST cells, and single clones that express mGluR5 were isolated from the transfected cells using zeocin selection. Expression of mGluR5 was assessed by measurement of the transient fluorescence signal elicited from HEK293/GLAST/mGluR5 cells by glutamate following the loading of the cells with a calcium-sensitive dye using a FLIPR Tetra (Fluorometric Imaging Plate Reader) (Molecular Devices, Sunnyvale, Calif.) [O'Brien J A, Lemaire W, Chen T B, Chang R S, Jacobson M A, Ha S N, Lindsley C W, Schaffhauser H J, Sur C, Pettibone D J, Conn P J, Williams D L Jr. […] 64, no. 3, pp. 731-740; Assay Guidance Manual Version 5.0, 2008, Eli Lilly and Company and NIH Chemical Genomics Center; available online HEK293/GLAST/mGluR5 cells were grown in Dulbecco's Modified Eagle Medium (DMEM) supplemented with 10% dialyzed fetal bovine serum, 20 millimolar (mM) N-2-hydroxyethylpiperazine-N′-2-ethanesulfonic acid (HEPES), penicillin, streptomycin, 1% GlutaMax™ (Invitrogen) and 50 μg/ml zeocin. Cells were grown in the media to 70-80% confluency at 37° C. under 5% CO2, 95% humidity in poly-D-lysine coated coated flasks. Cells for assays were plated into 96-well sterile standard microtiter plates (pre-coated with poly-D-lysine) at a density of 50,000 cells per well in 0.2 milliliters of media. Plated cells were allowed to settle and adhere for 30 minutes at ambient conditions, and then were incubated overnight at 37° C. under 5% CO2, 95% humidity. Several such 96-well plates were typically prepared. On the day of the assays, the components of the FLIPR calcium 4 assay kit (Molecular Devices) were dissolved according to the instructions of the dye kit's manufacturer in assay buffer (Hank's balanced salt solution (HBSS) (Gibco) supplemented with 20 mM HEPES). After removal of the growth media from the first plate, cells were loaded with calcium dye by addition of calcium dye solution (50 microliters per well) and incubation at 25° C. for 45 to 60 minutes. The first plate was placed into the FLIPR Tetra, and a dilution series of glutamate solutions in assay buffer were added to wells on the plate, followed by acquisition of fluorescence data for several minutes. The fluorescence data (maximal signal as a 4-parameter sigmoidal function of log [glutamate]) were processed by non-linear regression methods using the software package GraphPad Prism 5.01 (GraphPad Software Inc.), to yield a glutamate concentration-response curve (CRC). […] These values were, respectively, the concentrations of glutamate that elicit 20%, 50%, and 80% of the maximal FLIPR signal (observed at saturating [glutamate]). The method for measuring the concentration response of a potentiator, or positive allosteric modulator (PAM), is described here as an example. For that purpose, subsequent assays were typically performed using assay buffer containing a glutamate concentration equal to that day's EC20. […] Addition to certain wells of the same buffer containing 0.3% DMSO, but without any test compound, provided a negative control.

T1 sequence (P41594 21-1212): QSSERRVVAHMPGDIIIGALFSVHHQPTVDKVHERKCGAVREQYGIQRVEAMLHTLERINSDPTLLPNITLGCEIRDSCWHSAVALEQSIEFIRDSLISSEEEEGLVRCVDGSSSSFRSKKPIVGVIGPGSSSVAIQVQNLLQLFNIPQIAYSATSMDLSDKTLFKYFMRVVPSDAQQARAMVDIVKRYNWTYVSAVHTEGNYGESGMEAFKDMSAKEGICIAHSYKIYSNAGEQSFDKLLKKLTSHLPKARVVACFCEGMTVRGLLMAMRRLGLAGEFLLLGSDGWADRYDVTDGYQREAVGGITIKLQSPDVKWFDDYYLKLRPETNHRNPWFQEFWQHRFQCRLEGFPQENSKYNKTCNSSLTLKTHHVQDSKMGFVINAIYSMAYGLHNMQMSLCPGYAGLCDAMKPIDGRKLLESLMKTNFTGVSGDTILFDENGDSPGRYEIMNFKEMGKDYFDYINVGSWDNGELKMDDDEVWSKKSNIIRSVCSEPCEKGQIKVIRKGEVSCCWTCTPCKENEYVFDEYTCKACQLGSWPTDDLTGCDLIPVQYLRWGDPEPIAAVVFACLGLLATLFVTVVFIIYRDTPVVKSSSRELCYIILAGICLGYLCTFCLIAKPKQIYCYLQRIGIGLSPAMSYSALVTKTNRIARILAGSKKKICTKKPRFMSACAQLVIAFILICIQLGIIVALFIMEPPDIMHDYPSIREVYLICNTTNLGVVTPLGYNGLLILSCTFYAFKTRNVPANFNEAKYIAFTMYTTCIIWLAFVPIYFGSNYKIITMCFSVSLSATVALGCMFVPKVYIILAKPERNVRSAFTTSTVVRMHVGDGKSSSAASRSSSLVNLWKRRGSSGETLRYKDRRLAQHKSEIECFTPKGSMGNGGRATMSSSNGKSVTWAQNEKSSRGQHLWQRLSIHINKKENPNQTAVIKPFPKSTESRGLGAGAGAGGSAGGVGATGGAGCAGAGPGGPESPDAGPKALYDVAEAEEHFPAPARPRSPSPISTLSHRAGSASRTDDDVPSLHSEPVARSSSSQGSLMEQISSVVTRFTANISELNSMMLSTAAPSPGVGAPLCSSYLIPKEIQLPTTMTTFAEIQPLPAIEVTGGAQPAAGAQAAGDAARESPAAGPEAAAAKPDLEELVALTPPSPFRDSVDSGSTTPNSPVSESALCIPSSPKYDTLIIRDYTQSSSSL

`O=c1c2ccc(C#Cc3ccccn3)cc2nc2n1CC1CCCCN1C2` (stereo not drawn) [Example 5.20, 3-(pyridin-2-ylethynyl)-8,9,10,11,11a,12-hexahydropyrido[1′,2′:4,5]pyrazino[2,1-b]quinazolin-14(6H)-one] showed an EC50 of 300 to 1000 nM.
With `Cc1ccc(C#Cc2ccc3c(=O)n4c(nc3c2)CCC2(CC4)OCCO2)cc1` [Example 7.32] the EC50 was 300 to 1000 nM.
`CC12CCCN1Cc1nc3cc(C#Cc4ccccn4)ccc3c(=O)n1C2` (stereo not drawn) [Example 4.49, 13a-methyl-8-(pyridin-2-ylethynyl)-2,3,13,13a-tetrahydro-1H-pyrrolo[1′,2′:4,5]pyrazino[2,1-b]quinazolin-11 (5H)-one] gave an EC50 of 30 to 100 nM.
In the case of `CN1CCc2nc3cc(C#Cc4ccc(F)cc4)ccc3c(=O)n2CC1` [Example 8.1, 8-((4-fluorophenyl)ethynyl)-3-methyl-2,3,4,5-tetrahydro-[1,4]diazepino[7,1-b]quinazolin-11(1H)-one], the EC50 is reported as 100 to 300 nM.
`N#CC1CCc2nc3cc(C#Cc4ccccn4)ccc3c(=O)n2CC1` (stereo not drawn) [Example 6.39, 12-oxo-3-(pyridin-2-ylethynyl)-6,7,8,9,10,12-hexahydroazepino[2,1-b]quinazoline-8-carbonitrile] showed an EC50 of 100 to 300 nM.
`CC1Cc2nc3cc(C#Cc4ccccn4)ccc3c(=O)n2C1` (single isomer, unassigned) [3.12/3.13 slower moving enantiomer (fraction 2), 2-methyl-6-(pyridin-2-ylethynyl)-2,3-dihydropyrrolo[2,1-b]quinazolin-9(1H)-one] gave an EC50 of 10 to 30 nM.
For `Cc1ccsc1C#Cc1ccc2c(=O)n3c(nc2c1)CCC1(CC3)OCCO1` [Example 7.58], the EC50 was 300 to 1000 nM.
Compound `O=c1c2ccc(C#Cc3cscn3)cc2nc2n1CCC1(CC2)OCCO1` [Example 7.62] has an EC50 of 300 to 1000 nM.
In the case of `COCC1CCc2nc3cc(C#Cc4cccc(F)c4)ccc3c(=O)n2C1` (stereo not drawn) [Example 4.33, 3-((3-fluorophenyl)ethynyl)-8-(methoxymethyl)-8,9-dihydro-6H-pyrido[2,1-b]quinazolin-11(7H)-one], the EC50 is reported as under 10 nM.
In the case of `Cc1cnc(NC(=O)c2ccn3c(=O)c4c(nc3c2)CCCCC4)s1` [Example 28.3, N-(5-methylthiazol-2-yl)-11-oxo-6,7,8,9,10,11-hexahydrocyclohepta[d]pyrido[1,2-a]pyrimidine-3-carboxamide], the EC50 is reported as 30 to 100 nM.
`CC(C#N)N1CCc2nc3cc(C#Cc4ccccn4)ccc3c(=O)n2CC1` (stereo not drawn) [Example 8.24, 2-(11-oxo-8-(pyridin-2-ylethynyl)-1,2,4,5-tetrahydro-[1,4]diazepino[7,1-b]quinazolin-3(11H)-yl)propanenitrile] was tested, and the EC50 was 300 to 1000 nM.
`CC1Cc2nc3cc(C#Cc4ccccn4)ccc3c(=O)n2C1` (stereo not drawn) [Example 3.11, 2-methyl-6-(pyridin-2-ylethynyl)-2,3-dihydropyrrolo[2,1-b]quinazolin-9(1H)-one] was tested, and the EC50 was 10 to 30 nM.
`O=c1c2ccc(C#Cc3ccoc3)cc2nc2n1CCC1(CC2)OCCO1` [Example 7.56] gave an EC50 of 30 to 100 nM.
With `CC1Cc2nc3cc(/C=C/c4cccc(F)c4)ccc3c(=O)n2C1` (stereo not drawn) [Example 20.14, 6-(3-fluorostyryl)-2,3-dihydro-2-methylpyrrolo[2,1-b]quinazolin-9(1H)-one] the EC50 was 100 to 300 nM.
Compound `O=c1c2ccc(C#Cc3cccc(F)c3)cc2nc2n1CCC2` [Example 3.1, 6-((3-fluorophenyl)ethynyl)-2,3-dihydropyrrolo[2,1-b]quinazolin-9(1H)-one] has an EC50 of under 10 nM.
`O=c1c2c(nc3cc(C#Cc4ccccn4)ccn13)CCCCCC2` [Example 17.2, 3-(pyridin-2-ylethynyl)-8,9,10,11-tetrahydro-6H-cycloocta[d]pyrido[1,2-a]pyrimidin-12(7H)-one] gave an EC50 of under 10 nM.
Work on `O=c1c2ccc(C#Cc3ccc(F)cn3)cc2nc2n1CCC1(CC2)OCCO1` [Example 7.13] yielded an EC50 of 30 to 100 nM.
`O=c1c2ccc(C#Cc3ccccn3)cc2nc2n1CCC(CO)C2` (stereo not drawn) [Example 4.37, 7-(hydroxymethyl)-3-(pyridin-2-ylethynyl)-8,9-dihydro-6H-pyrido[2,1-b]quinazolin-11(7H)-one] showed an EC50 of 30 to 100 nM.
Compound `CN(C)C1CCc2nc3cc(C#Cc4cccc(F)c4)ccc3c(=O)n2C1` (stereo not drawn) [Example 4.30, 8-(dimethylamino)-3-((3-fluorophenyl)ethynyl)-8,9-dihydro-6H-pyrido[2,1-b]quinazolin-11(7H)-one] has an EC50 of 100 to 300 nM.
In the case of `C=CCC1CCCn2c1nc1cc(C#Cc3cccc(F)c3)ccc1c2=O` (stereo not drawn) [Example 4.7, 6-allyl-3-((3-fluorophenyl)ethynyl)-8,9-dihydro-6H-pyrido[2,1-b]quinazolin-11(7H)-one], the EC50 is reported as 10 to 30 nM.
`Cn1c(CN2CCCC2)nc2cc(C#Cc3cccc(F)c3)ccc2c1=O` [Example 2.6, 7-((3-fluorophenyl)ethynyl)-3-methyl-2-(pyrrolidin-1-ylmethyl)quinazolin-4(3H)-one] showed an EC50 of 100 to 300 nM.
With `CC1CCCc2nc3cc(C#Cc4cccc(F)c4)ccc3c(=O)n21` (stereo not drawn) [Example 4.17, 3-((3-fluorophenyl)ethynyl)-9-methyl-8,9-dihydro-6H-pyrido[2,1-b]quinazolin-11(7H)-one] the EC50 was 10 to 30 nM.
`COCCc1nc2cc(C#Cc3cccc(F)c3)ccc2c(=O)[nH]1` [Example 2.13, 7-((3-fluorophenyl)ethynyl)-2-(2-methoxyethyl)quinazolin-4(3H)-one] showed an EC50 of 100 to 300 nM.
Compound `CC1(F)CCc2nc3cc(C#Cc4ccccn4)ccc3c(=O)n2CC1` (single isomer, unassigned) [Example 6.48a/6.48b slower moving enantiomer (fraction 2), 8-fluoro-8-methyl-3-(pyridin-2-ylethynyl)-7,8,9,10-tetrahydroazepino[2,1-b]quinazolin-12(6H)-one] has an EC50 of under 10 nM.
Compound `CN1Cc2nc3cc(C#Cc4ccccn4)ccc3c(=O)n2CC1(C)C` [Example 5.18, 2,3,3-trimethyl-9-(pyridin-2-ylethynyl)-3,4-dihydro-1H-pyrazino[2,1-b]quinazolin-6(2H)-one] has an EC50 of 300 to 1000 nM.
Work on `O=c1c2ccc(C#Cc3ccco3)cc2nc2n1CCC1(CC2)OCCO1` [Example 7.55] yielded an EC50 of 30 to 100 nM.
For `O=c1c2ccc(C#Cc3ccsc3)cc2nc2n1CCC1(CC2)OCCO1` [Example 7.59], the EC50 was 10 to 30 nM.
Compound `CCOCc1cnc2cc(C#Cc3cccc(F)c3)ccn2c1=O` [Example 13.8, 3-(ethoxymethyl)-8-((3-fluorophenyl)ethynyl)-4H-pyrido[1,2-a]pyrimidin-4-one] has an EC50 of 30 to 100 nM.
Compound `O=c1c2ccc(C#CC3=CCCC3)cc2nc2n1CCC1(CC2)OCCO1` [Example 7.51] has an EC50 of 100 to 300 nM.
`O=c1c2c(nc3cc(C#Cc4cccnc4)ccn13)CCCCC2` [Example 16.4, 3-(pyridin-3-ylethynyl)-7,8,9,10-tetrahydrocyclohepta[d]pyrido[1,2-a]pyrimidin-11(6H)-one] gave an EC50 of under 10 nM.
In the case of `O=c1c2ncc(C#Cc3ccccn3)cc2nc2n1CC1CCCN1C2` (stereo not drawn) [Example 11.6, 3-(pyridin-2-ylethynyl)-9,10,10a,11-tetrahydro-6H-pyrido[3,2-d]pyrrolo[1′,2′:4,5]pyrazino[1,2-a]pyrimidin-13(8H)-one], the EC50 is reported as 300 to 1000 nM.
`CC1(O)CCc2nc3cc(C#Cc4ccccn4)ccc3c(=O)n2CC1` (stereo not drawn) [Example 6.49, 8-hydroxy-8-methyl-3-(pyridin-2-ylethynyl)-7,8,9,10-tetrahydroazepino[2,1-b]quinazolin-12(6H)-one] gave an EC50 of 100 to 300 nM.
Work on `O=c1c2ccc(C#Cc3ccccn3)cc2nc2n1CCC(O)CC2` (stereo not drawn) [Example 6.16, 8-hydroxy-3-(pyridin-2-ylethynyl)-7,8,9,10-tetrahydroazepino[2,1-b]quinazolin-12(6H)-one] yielded an EC50 of 30 to 100 nM.
